Test results: US4478842A, “N-Substituted-2-pyridylindoles” (Ciba-Geigy Corporation, priority 1982, dated 1984)
Structures can show the parent of a compound that is named as a salt. One block for each compound: values may come before it.

Legend:
[1] = tested on: prostacyclin (PGI2); assay: plasma level of prostacyclin (6-keto-PGF1α) in vivo (ionophore A23187 injected); conditions: rat, oral dose 0.10 mg/kg or higher
Description: (§1) The inhibition of the synthesis and the reduction of plasma levels of thromboxane is determined in vivo on administration to rats in the following manner (as adapted from the procedures described by Tai et al. in Anal. Biochem. 87:343, 1978 and by Salmon in Prostaglandins 15:383, 1978):
(§2) Rats are dosed with vehicle or test drug and injected intravenously with ionophore A23187 (0.5 mg/kg) two hours later. Blood is collected for analysis 2 minutes after the ionophore injection. A single aliquot of each plasma sample is assayed for thromboxane B2 and another aliquot for 6-keto-PGF1 α, the stable metabolites of thromboxane A2 and prostacyclin (PGI2) respectively, by radioimmunoassay.

[2] = tested on: thromboxane B2; assay: reduction of plasma levels of thromboxane B2 in vivo (ionophore A23187 injected); conditions: rat, oral dose as low as 0.10 mg/kg
Description: as §1, §2

[3] = molecular target: T1, thromboxane synthetase (Homo sapiens, UniProt P24557); assay: in vitro inhibition of the thromboxane synthetase enzyme (TxB2/PGF2α+β ratio); format: biochemical; conditions: 30 minutes incubation
T1 construct: crude microsomal preparation of thromboxane synthetase from lysed human platelets; from tissue; host or cells: human platelets (lysed), crude microsomal preparation
T1 sequence (P24557 1-533): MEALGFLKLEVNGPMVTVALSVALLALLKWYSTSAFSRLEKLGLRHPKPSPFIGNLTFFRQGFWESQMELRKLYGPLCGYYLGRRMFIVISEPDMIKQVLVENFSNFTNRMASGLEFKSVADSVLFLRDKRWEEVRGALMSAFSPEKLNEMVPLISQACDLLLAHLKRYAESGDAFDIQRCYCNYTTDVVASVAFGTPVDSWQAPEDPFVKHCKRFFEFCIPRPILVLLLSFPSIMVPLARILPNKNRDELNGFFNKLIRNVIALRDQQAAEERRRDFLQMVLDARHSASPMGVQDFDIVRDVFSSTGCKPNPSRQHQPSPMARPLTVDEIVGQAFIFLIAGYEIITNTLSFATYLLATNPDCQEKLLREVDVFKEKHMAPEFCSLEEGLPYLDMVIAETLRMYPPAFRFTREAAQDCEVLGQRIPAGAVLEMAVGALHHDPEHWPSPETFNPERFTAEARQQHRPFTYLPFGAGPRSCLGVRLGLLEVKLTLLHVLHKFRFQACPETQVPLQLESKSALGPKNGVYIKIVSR
Description: Res. Comm. 74, 1432 (1977); the testing procedure is as follows: ^14 C-Arachidonic acid is incubated with an enzyme consisting of solubilized and partially purified prostaglandin cyclo-oxygenase from sheep seminal vesicles and a crude microsomal preparation of thromboxane synthetase from lysed human platelets. The test compound (dissolved in buffer, or if necessary, in a small amount of ethanol) is added to the incubation medium. […] The radioactive zones are located; those corresponding to Thromboxane B2 (TxB2) and PGF2 α+β are transferred to liquid scintillation vials and counted. The ratio of counts for TxB2 /PGF2 α+β is calculated for each concentration of test compound and IC50 values are determined graphically as the concentration of test compound at which the ratio of TxB2 /PGF2 α+β is reduced to 50% of the control value.

[4] = tested on: bleeding time; assay: prolongation of bleeding time in the rat; format: in vivo; conditions: orally to rats, about 30 mg/kg
Source text: (§3) Experimentally, prolongation of bleeding time in the rat is indicative of a beneficial antithrombotic effect.

[5] = tested on: thrombocytopenia; assay: variously induced thrombocytopenia; conditions: in vivo
[6] = tested on: arachidonic acid induced pulmonary obstruction; assay: protection against sudden death due to arachidonic acid induced pulmonary obstruction; format: in vivo; conditions: orally to mice, 100 mg/kg
[7] = tested on: platelet aggregation; assay: variously induced platelet aggregation
Source text: as §3

SMILES: Cc1c(-c2cccnc2)n(CCCCCC(=O)O)c2ccc(Cl)cc12 [Example 7, 1-(5-carboxypentyl)-5-chloro-3-methyl-2-(3-pyridyl)indole]
plasma level of prostacyclin [1]: surprising increase
decrease of the plasma concentration of thromboxane B2 [2]: over 50%

IC50 [3]: 26 nM
SMILES: Cc1c(-c2cccnc2)n(CCOc2ccc(C(=O)O)cc2)c2ccccc12 [Example 20, 1-[2-(4-carboxyphenoxy)ethyl]-2-(3-pyridyl)-3-methylindole]

SMILES: Cc1c(-c2cccnc2)n(CCCCCCCC(=O)O)c2ccccc12 [Example 1, 1-(7-carboxyheptyl)-3-methyl-2-(3-pyridyl)indole]
prolongation of bleeding time [4]: prolongs bleeding time
plasma level of prostacyclin [1]: surprising increase
inhibition of variously induced thrombocytopenia [5]: inhibits variously induced platelet aggregation and thrombocytopenia
protection against sudden death [6]: protects against sudden death
inhibition of variously induced platelet aggregation [7]: inhibits variously induced platelet aggregation

IC50 [3]: 58 nM
SMILES: Cc1c(-c2cccnc2)n(CCSc2ccc(C(=O)O)cc2)c2ccccc12 [Example 22, 1-[2-(4-carboxyphenylthio)ethyl]-2-(3-pyridyl)-3-methylindole hydrochloride]
